Common to all, as to format: cell-based, human
For one experiment, the system named is Patient 14 TCC-01. Nature of the experiment: IFN-γ ELISpot with T cell clone. Conditions: TCC Patient 14 TCC-01 (Table 5); mean no antigen 11.3, high background, SFU >25 considered as positive responses. The protocol: (§1) Peripheral blood mononuclear cells (PBMC) were isolated from heparinized whole blood using Ficoll-Paque™ Plus density-gradient centrifugation (GE Healthcare). IFN-γ ELISpot (Mabtech) was set up as previously described^8.
(§2) Isolation of TCC from CD patients was carried out as previously described^8. Briefly, CFSE-labeled PBMC were incubated with antigen for 7 days in IMDM supplemented with 5% heat-inactivated pooled human serum (PHS), 2 mM GlutaMAX™, 100 μM MEM non-essential amino acids (both from Gibco, Invitrogen), and 50 μM 2-mercaptoethanol (Sigma). Proliferated cells were single-cell sorted into 96-well plates containing IL-2, IL-4, anti-CD3 mAb, irradiated feeder cells (allogeneic PBMC and JY-EBV). TCC were expanded and maintained in IL-2 and IL-4 and tested for specificity by ELISpot with irradiated HLA-matched PBMC as antigen-presenting cells. Expanded clones were tested for HLA-DQ restriction, TCR Vbeta usage, and with lysine scans to work out minimal epitopes. See Table 1 below for TCC and epitope information.

In a further experiment the test system is Patient 2 TCC-01. The experiment is described as follows: IFN-γ ELISpot with T cell clone. To be noted: TCC Patient 2 TCC-01 (Table 5); mean no antigen 1.1. On the procedure: as §1, §2
A further experiment deals with Patient 6 TCC-01. Nature of the experiment: IFN-γ ELISpot with T cell clone. Conditions: TCC Patient 6 TCC-01 (Table 5); mean no antigen 2. The protocol:
as §1, §2

For another experiment, the system named is PBMC. Nature of the experiment: IFN-γ ELISpot on PBMC of CD patients on day 6 after 3-day oats challenge. To be noted: after 3-day oats challenge.
Description: Australian Caucasian HLA-DQ2.5^+ and/or HLA-DQ8^+ CD subjects were recruited by advertisement in the Coeliac Society of Victoria newsletter and all had biopsy-proven CD conforming to ESPGHAN criteria. Patients had been on strict gluten free diet for at least 4 weeks prior to commencing grain challenge. Patients underwent 3-day grain challenge with oats, barley, or combined wheat, barley, and rye muffins, and 6 days after commencement, blood was collected. Day 0 responses were not observed in the selection of patients tested, as described previously^8.
Oats challenge consisted of 100 g dry weight daily of one of three commercial brands of oats: one not tested for wheat contamination (Uncle Toby's; Oats #1), and two shown by R5 ELISA to contain less than 20 ppm wheat gluten (Tilquhilie Pudding; Oats #2 and Freedom Food; Oats #3). Barley challenge consisted of pearl barley (Ward McKenzie) cooked into a risotto (150 g dry weight daily) and the wheat challenge consisted of four 50 g slices of wheat bread daily (Baker's Delight white loaf cut to toasting thickness). The combined wheat, barley, and rye challenge consisted of muffins baked with wheat flour (White Wings), barley flour (Four Leaf Milling), and rye flour (Four Leaf Milling; 22-25 g dry weight each daily). A symptom diary based on a […] Likert scale was completed by participants daily from baseline until day 6.
Two avenin peptide libraries were utilized for epitope screening. These were designed using avenin sequences from GenBank and a customized algorithm, as previously described^9. The initial library consisted of 199 screening-grade 20 mers including all possible 12 mers (Mimotopes). This library was screened with and without tTG pre-treatment. The second library consisted of additional avenin sequences that were synthesized with glutamate substitution at sites predicted to be deamidated by published algorithms^10, 11 removing the requirement for tTG treatment. This library contained 369 screening-grade 20 mers, including all possible 12 mers (Pepscan). The second round avenin library contained wild-type and deamidated versions of the most immunogenic sequences (25 high quality 16 mers from Mimotopes). High quality peptides containing previously described immunogenic sequences from wheat, barley, and rye were used to test for cross-reactivity^8 (Pepscan). High quality hordein and avenin peptides for TCC testing and biochemical studies were ordered from Pepscan, Mimotopes, or GL Biochem.
as §1

The source of these data is patent US20160238590A1, “COMPOSITIONS AND METHODS RELATED TO OAT SENSITIVITY” (IMMUSANT, INC., priority 2013, published 2016).

Where no end group is shown, it is not given here. [ ]: non-standard residue; d: D form. pGlu = O=C1CC[C@@H](C(=O)O)N1

With “PEQPFPEQPQPYPQQP [barley peptide, AFM77740.1 (25-40) [Q26 to E, Q31 to E]]”, the “IFN-γ ELISpot response (raw SFU)” value stood at 66 SFU with Patient 14 TCC-01, 202 SFU with Patient 2 TCC-01 and 73 SFU in the experiment with Patient 6 TCC-01.

With “PQPFPEQPIPEQPQPY [barley peptide, 1103203A (27-42) [Q32 to E, Q37 to E]]”, the “IFN-γ ELISpot response (raw SFU)” value in the experiment on Patient 14 TCC-01 stood at 38 SFU; in the experiment with Patient 2 TCC-01, 1 SFU; with Patient 6 TCC-01, 60 SFU.

Take “PQPYPEQPQPFPQQPP [barley peptide, 1103203B (39-54) [Q44 to E]]”: the entries for the “IFN-γ ELISpot response (raw SFU)” value with Patient 14 TCC-01, with Patient 2 TCC-01 and in the experiment with Patient 6 TCC-01 were 12 SFU, 292 SFU and 69 SFU, respectively.

Consider “QYQPYPEQQQPILQQQ [avenin peptide, Genbank AAB32025 (7-22), wild-type]”, for which the “IFN-γ ELISpot response (raw SFU)” value in the experiment with PBMC (patient P1, peptide 1 μg/ml) was found to be 2 SFU; with PBMC (patient P1, peptide 10 μg/ml), 11 SFU; in the experiment with PBMC (patient P1, peptide 100 μg/ml), 11 SFU; with PBMC (patient P2, peptide 1 μg/ml), 2 SFU; in the experiment on PBMC (patient P2, peptide 10 μg/ml), 10 SFU; with PBMC (patient P2, peptide 100 μg/ml), 23 SFU. Also, the “IFN-γ ELISpot response (raw SFU)” value is reported as 1 SFU in the experiment with PBMC (patient P3, peptide 1 μg/ml); 25 SFU with PBMC (patient P3, peptide 10 μg/ml); 4 SFU with PBMC (patient P3, peptide 100 μg/ml); 2 SFU in the experiment with PBMC (patient P11, peptide 1 μg/ml); 11 SFU in the experiment on PBMC (patient P11, peptide 10 μg/ml); 4 SFU with PBMC (patient P11, peptide 100 μg/ml). Besides, the “IFN-γ ELISpot response (raw SFU)” value in the experiment on PBMC (patient P12, peptide 1 μg/ml) is recorded as 1 SFU; in the experiment on PBMC (patient P12, peptide 10 μg/ml), 3 SFU; in the experiment on PBMC (patient P12, peptide 100 μg/ml), 7 SFU; in the experiment on PBMC (patient P13, peptide 50 μg/ml), 2 SFU; in the experiment with Patient 14 TCC-01 it was 22 SFU; in the experiment with Patient 2 TCC-01 it was 79 SFU. For the same substance, the “IFN-γ ELISpot response (raw SFU)” value in the experiment on Patient 6 TCC-01 was 3 SFU. Besides, the “significant SFU as a percentage of maximal peptide SFU” value was “* (*: 20-40%)” in the experiment with PBMC (patient P1, peptide 10 μg/ml); “* (*: 20-40%)” with PBMC (patient P1, peptide 100 μg/ml); “** (**: 40-70%)” with PBMC (patient P2, peptide 100 μg/ml); “** (**: 40-70%)” in the experiment on PBMC (patient P3, peptide 10 μg/ml); “(^: 10-20%)” in the experiment on PBMC (patient P11, peptide 10 μg/ml); “** (**: 40-70%)” in the experiment with PBMC (patient P11, peptide 100 μg/ml).

Turning to “SEQYQPYPEQQQPFVQ [avenin peptide, wild-type]”, the “IFN-γ ELISpot response (raw SFU)” value in the experiment on PBMC (patient P1, peptide 1 μg/ml) stood at 2 SFU; with PBMC (patient P1, peptide 10 μg/ml) it was 2 SFU; with PBMC (patient P1, peptide 100 μg/ml) it was 4 SFU; with PBMC (patient P2, peptide 1 μg/ml) it was 4 SFU; in the experiment on PBMC (patient P2, peptide 10 μg/ml), 1 SFU; with PBMC (patient P2, peptide 100 μg/ml) it was 16 SFU. Moreover, the “IFN-γ ELISpot response (raw SFU)” value with PBMC (patient P3, peptide 1 μg/ml) was 1 SFU; with PBMC (patient P3, peptide 10 μg/ml), 2 SFU; in the experiment with PBMC (patient P3, peptide 100 μg/ml), 4 SFU; in the experiment on PBMC (patient P11, peptide 1 μg/ml), 0 SFU; with PBMC (patient P11, peptide 10 μg/ml) it was 0 SFU; in the experiment with PBMC (patient P11, peptide 100 μg/ml) it was 0 SFU. Further, the “IFN-γ ELISpot response (raw SFU)” value in the experiment on PBMC (patient P12, peptide 1 μg/ml) is listed as 0 SFU; in the experiment on PBMC (patient P12, peptide 10 μg/ml), 1 SFU; in the experiment on PBMC (patient P12, peptide 100 μg/ml), 4 SFU; in the experiment on PBMC (patient P13, peptide 50 μg/ml), 1 SFU; in the experiment with Patient 14 TCC-01 it was 11 SFU; with Patient 2 TCC-01, 100 SFU. In addition, the “IFN-γ ELISpot response (raw SFU)” value in the experiment with Patient 6 TCC-01 was determined as 1 SFU. Also, in the experiment on PBMC (patient P2, peptide 100 μg/ml), the “significant SFU as a percentage of maximal peptide SFU” value is “* (*: 20-40%)”.

Turning to “pEPEQIIPEQPEQPS ([pGlu]PEQIIPEQPEQPS) [rye peptide, AAB58403.1 (195-208) [Q195 to pyroglutamate, Q202 to E, Q205 to E], reference compound]”, the “IFN-γ ELISpot response (raw SFU)” value in the experiment on Patient 14 TCC-01 is 59 SFU; with Patient 2 TCC-01, 2 SFU; in the experiment with Patient 6 TCC-01, 3 SFU.

Consider “pEPEQPFPEQPQQII ([pGlu]PEQPFPEQPQQII) [rye peptide, AAB58403.1 (187-200) [Q187 to pyroglutamate, Q189 to E, Q194 to E], reference compound]”, for which the “IFN-γ ELISpot response (raw SFU)” value worked out at 58 SFU with Patient 14 TCC-01, 0 SFU with Patient 2 TCC-01 and 0 SFU in the experiment on Patient 6 TCC-01.
